This is an account of results in patent US5359135A, “Triasulfurone compounds” (priority 1990, dated 1994).

Each structure is given as a SMILES string.

Common to all, as to type: binding, mouse (Balb/c)
What all share (conditions): for Cross-reactivity: (triasulfurone conc. for 50% inhibition/analog conc. for 50% inhibition) × 100

One assay concerns MAb 4147-19-4. The assay can be described thus: competitive ELISA, triasulfurone and analogs with MAb 4147-19-4 (Table 1). The text has this: (§1) As defined within the context of this invention, the percentage of cross-reactivity is represented by the following equation: [triasulfurone concentration for 50% inhibition (I50)/concentration of the triasulfurone analogs for 50% inhibition (I50)]×100.
(§2) The I50 value can be determined, for example, by means of a competitive ELISA assay (see Example 8). In that case the I50 value corresponds, for example, to the antigen concentration that leads to a 50% inhibition of the binding of the antibody to the carrier-bound antigen.
(§3) The detection of triasulfurone is effected by means of a two-step competitive ELISA test.
(§4) BSA-conjugated hapten, prepared in accordance with Example 1.3.1 or 1.3.2, in a 50mM sodium carbonate buffer (pH 9.6) (200 ng of BSA-conjugated hapten/100 μl of sodium carbonate buffer) is first of all adsorbed on microtitre plates (for example Dynatech, type M 129A) and incubated overnight at a temperature of 4° C. The plates are then washed five times with PBS buffer enriched with 0.1% (v/v) polysorbate 20 (Tween 20) (PBS Tween).
(§5) The remaining free binding sites of the solid carder material are then blocked by the addition of PBS-BSA in the form of a 1% (w/v) solution. After incubation for two hours at 22° C. the plates are washed again with PBS Tween (0.1%).
(§6) 50 μl of the supernatant of the previously cloned hybridoma cells (in a dilution of 1:2000 or 1:4000) or 50 μl of the previously purified monoclonal antibodies (40-120 ng/ml) are incubated a) with 950 μl of a standard solution containing an increasing amount of triasulfurone or of triasulfurone analogs, b) with triasulfurone-containing water samples or c) with triasulfurone-containing soil extracts. [All dilutions are carried out in PBS Tween (0.1%)].
(§7) After an incubation period of 1 hour at room temperature (22° C.), 200 μl of the antigen/antibody mixture are added to each well in the microtitre plate and the whole batch is incubated for a further one hour. The wells are then washed five times with PBS Tween (0.1%) and charged with 100 μl/well of goat anti-mouse IgG antibody that is conjugated to alkaline phosphatase (dilution 1:1500), and incubated for a period of 1.5 hours.
(§8) After washing again, 150 μl/well of the substrate p-nitrophenyl phosphate dissolved in 1 mg/ml of diethanolamine buffer ([…], pH 9.8, enriched with 0.5 mM MgCl2 ×6H2 O) are added to the wells.
(§9) The intensity of the colour reaction that has occurred is determined at a wavelength of 405 nm. […] All the samples are determined in triplicate.
(§10) In order to determine the amount of triasulfurone present in a sample, first of all a calibration curve is produced (FIG. 1), B/Bo×100 being plotted against the concentration of inhibitor. (Bo represents the absorption capacity measured without the addition of a triasulfurone inhibitor to the antibody, and B is the absorption capacity when triasulfurone inhibitors at various concentrations are added). The I50 value indicates the concentration of the antigen at which the binding of antibody to the solid phase is inhibited by 50%. The I50 value is determined using an ENZFITTER (Leatherbarrow, Elsevier-Biosoft) curve-calculation program based on a four-parameter logistical curve (Raab GM, 1983) and specially adapted to the prevailing conditions. The quantitative determination of triasulfurone in soil or water samples within the context of ELISA is also carried out using the ENZFITTER program, the adaptation of the curve being based on standards that run on any microtitre plate.

The test system of a further assay is MAb 4134-40-1. Briefly: competitive ELISA, triasulfurone and analogs with MAb 4134-40-1 (Table 1).
From the text: as §1, §2, §3, §4, §5, §6, §7, §8, §9, §10
In general terms: In an ELISA, binding on a coated surface is turned into a signal by an enzyme label.

Another assay concerns MAb 4149-1-1. Briefly: competitive ELISA, triasulfurone and analogs with MAb 4149-1-1 (Table 1).
From the text: as §1, §2, §3, §4, §5, §6, §7, §8, §9, §10

With `COc1nc(C)nc(NC(=O)NS(=O)(=O)c2cc(O)ccc2OCCCl)n1` [A], the “I50 (inhibitor concentration that reduces the ELISA signal by 50% in comparison to the control)” value turned out to be 21.4 ng/mL in the assay on MAb 4147-19-4, 550 ng/mL in the assay with MAb 4134-40-1 and 0.16 ng/mL in the assay with MAb 4149-1-1. For the same compound, the results for the Cross-reactivity with MAb 4147-19-4, in the assay with MAb 4134-40-1 and in the assay with MAb 4149-1-1 were 0.4%, 1.3% and 31.3%, respectively.
`COc1nc(C)nc(NC(=O)NS(=O)(=O)c2ccc(O)cc2OCCCl)n1` [B]: the “I50 (inhibitor concentration that reduces the ELISA signal by 50% in comparison to the control)” value in the assay with MAb 4147-19-4 is 85 ng/mL; in the assay with MAb 4134-40-1, over 1000 ng/mL; in the assay with MAb 4149-1-1, 0.04 ng/mL. The Cross-reactivity with MAb 4147-19-4 is 0.1%; with MAb 4134-40-1, under 0.7%; in the assay on MAb 4149-1-1 it was 125.0%.
Take `NS(=O)(=O)c1ccccc1OCCCl` [C]: the “I50 (inhibitor concentration that reduces the ELISA signal by 50% in comparison to the control)” value with MAb 4147-19-4 is over 1000 ng/mL; in the assay with MAb 4134-40-1 it was over 1000 ng/mL; in the assay with MAb 4149-1-1, 1000 ng/mL. Moreover, the Cross-reactivity in the assay with MAb 4147-19-4 is given as under 0.01%; with MAb 4134-40-1, under 0.7%; with MAb 4149-1-1, under 0.01%.
Consider `NS(=O)(=O)c1ccccc1OCCO` [D], for which the “I50 (inhibitor concentration that reduces the ELISA signal by 50% in comparison to the control)” value in the assay with MAb 4147-19-4, in the assay with MAb 4134-40-1 and in the assay on MAb 4149-1-1 was over 1000 ng/mL throughout. The Cross-reactivity in the assay on MAb 4147-19-4 was under 0.01%; with MAb 4134-40-1 it was under 0.7%; in the assay on MAb 4149-1-1, under 0.01%.
As to `NS(=O)(=O)c1cc(O)ccc1OCCCl` [E], the “I50 (inhibitor concentration that reduces the ELISA signal by 50% in comparison to the control)” value in the assay on MAb 4147-19-4, in the assay on MAb 4134-40-1 and in the assay on MAb 4149-1-1 was over 1000 ng/mL in each case. The results for the Cross-reactivity in the assay on MAb 4147-19-4, in the assay on MAb 4134-40-1 and with MAb 4149-1-1 were under 0.01%, under 0.7% and under 0.01%, respectively.
Regarding `COc1nc(C)nc(NC(N)=O)n1` [F], the “I50 (inhibitor concentration that reduces the ELISA signal by 50% in comparison to the control)” value in the assay with MAb 4147-19-4, in the assay with MAb 4134-40-1 and with MAb 4149-1-1 was over 1000 ng/mL in each case. Besides, the Cross-reactivity is recorded as under 0.01% with MAb 4147-19-4, under 0.7% in the assay on MAb 4134-40-1 and under 0.01% in the assay on MAb 4149-1-1.
Take `COc1nc(C)nc(NC(=O)NS(=O)(=O)c2ccccc2SCCF)n1` [H]: the “I50 (inhibitor concentration that reduces the ELISA signal by 50% in comparison to the control)” value in the assay on MAb 4147-19-4 worked out at 0.13 ng/mL; with MAb 4134-40-1 it was 30 ng/mL; with MAb 4149-1-1, 16.2 ng/mL. The Cross-reactivity is given as 69.2% in the assay with MAb 4147-19-4, 24.0% in the assay on MAb 4134-40-1 and 0.3% in the assay on MAb 4149-1-1.
On to `COC(=O)c1ccccc1S(=O)(=O)NC(=O)Nc1nc(OC(F)F)cc(OC(F)F)n1` [I, primisulfurone], for which the “I50 (inhibitor concentration that reduces the ELISA signal by 50% in comparison to the control)” value in the assay on MAb 4147-19-4, in the assay on MAb 4134-40-1 and with MAb 4149-1-1 was over 1000 ng/mL throughout. Besides, the Cross-reactivity with MAb 4147-19-4 is on record as under 0.01%; in the assay with MAb 4134-40-1, under 0.7%; in the assay on MAb 4149-1-1 it was under 0.01%.
Turning to `COC(=O)c1ccccc1S(=O)(=O)NC(=O)Nc1nc(C)cc(C)n1` [J, sulfometurone-methyl], the “I50 (inhibitor concentration that reduces the ELISA signal by 50% in comparison to the control)” value in the assay with MAb 4147-19-4, with MAb 4134-40-1 and in the assay on MAb 4149-1-1 was over 1000 ng/mL each time. For the same compound, the Cross-reactivity in the assay with MAb 4147-19-4 was under 0.01%; in the assay with MAb 4134-40-1 it was under 0.7%; in the assay on MAb 4149-1-1 it was under 0.01%.
For the compound `COC(=O)c1ccccc1S(=O)(=O)NC(=O)N(C)c1nc(C)nc(OC)n1` [K, tribenurone-methyl], the “I50 (inhibitor concentration that reduces the ELISA signal by 50% in comparison to the control)” value in the assay with MAb 4147-19-4, in the assay with MAb 4134-40-1 and in the assay with MAb 4149-1-1 was over 1000 ng/mL in each case. For the same compound, the results for the Cross-reactivity in the assay with MAb 4147-19-4, with MAb 4134-40-1 and with MAb 4149-1-1 were under 0.01%, under 0.7% and under 0.01%, respectively.
Take `COC(=O)c1sccc1S(=O)(=O)NC(=O)Nc1nc(C)nc(OC)n1` [L, thiameturone-methyl]: the “I50 (inhibitor concentration that reduces the ELISA signal by 50% in comparison to the control)” value in the assay on MAb 4147-19-4 was 14.2 ng/mL; with MAb 4134-40-1, over 1000 ng/mL; in the assay on MAb 4149-1-1 it was over 1000 ng/mL. In addition, the Cross-reactivity was 0.6% in the assay on MAb 4147-19-4, under 0.7% in the assay on MAb 4134-40-1 and under 0.01% in the assay on MAb 4149-1-1.
Consider `COc1nc(C)nc(NC(=O)NS(=O)(=O)c2ccccc2Cl)n1` [M, chlorosulfurone], for which the “I50 (inhibitor concentration that reduces the ELISA signal by 50% in comparison to the control)” value was 14.3 ng/mL with MAb 4147-19-4, over 1000 ng/mL with MAb 4134-40-1 and 420 ng/mL with MAb 4149-1-1. The Cross-reactivity is on record as 0.6% in the assay with MAb 4147-19-4, under 0.7% in the assay with MAb 4134-40-1 and 0.01% in the assay with MAb 4149-1-1.
On to `COC(=O)c1ccccc1CS(=O)(=O)NC(=O)Nc1nc(OC)cc(OC)n1` [N, bensulfurone-methyl], for which the “I50 (inhibitor concentration that reduces the ELISA signal by 50% in comparison to the control)” value in the assay with MAb 4147-19-4, in the assay with MAb 4134-40-1 and in the assay with MAb 4149-1-1 was over 1000 ng/mL in each case. For the same compound, the Cross-reactivity is on record as under 0.01% in the assay on MAb 4147-19-4, under 0.7% in the assay with MAb 4134-40-1 and under 0.01% in the assay on MAb 4149-1-1.
On to `COC(=O)c1ccccc1S(=O)(=O)NC(=O)Nc1nc(C)nc(OC)n1` [O, methsulfurone-methyl], for which the results for the “I50 (inhibitor concentration that reduces the ELISA signal by 50% in comparison to the control)” value in the assay on MAb 4147-19-4, in the assay with MAb 4134-40-1 and in the assay on MAb 4149-1-1 were 81.5 ng/mL, over 1000 ng/mL and 600 ng/mL, respectively. Further, the Cross-reactivity in the assay with MAb 4147-19-4 is 0.1%; with MAb 4134-40-1, under 0.7%; in the assay with MAb 4149-1-1, under 0.01%.
On to `COc1cc(OC)nc(NC(=O)NS(=O)(=O)c2ncccc2C(=O)N(C)C)n1` [P, nicosulfurone-methyl], for which the “I50 (inhibitor concentration that reduces the ELISA signal by 50% in comparison to the control)” value in the assay on MAb 4147-19-4, with MAb 4134-40-1 and in the assay with MAb 4149-1-1 was over 1000 ng/mL each time. Further, the figures for the Cross-reactivity with MAb 4147-19-4, in the assay with MAb 4134-40-1 and with MAb 4149-1-1 were under 0.01%, under 0.7% and under 0.01%, respectively.
